Experimental data as given in a melting point compilation (Tetko et al.).

Question: Which melting point does the source give for CCOc1ccc2c(C)cc(=O)oc2c1 here?
Answer: 115 °C

Question: For Cc1c(Cl)cc(Cl)c(O)c1Cl, which melting point is on record?
Answer: 46 °C

Question: For CN(C)c1ccc(/C=C(/C#N)c2nc(-c3ccc(Cl)cc3)cs2)cc1, which melting point is on record?
Answer: 133 °C

Question: With Cc1nc(C(C)(C)C)sc1C(=O)O as the compound, how does the melting point read?
Answer: 156 °C

Question: For CS(=O)(=O)c1ccc(C(C=O)C=O)c([N+](=O)[O-])c1, which melting point is on record?
Answer: 213 to 219 °C

Question: For CCOC(=O)c1cc2cc3ccccc3cc2cc(C(=O)OCC)c1=O, which melting point is on record?
Answer: 161 °C

Question: Which melting point does the source give for Cn1ccc2c(S(=O)(=O)Cl)cccc21 here?
Answer: 94 to 98 °C

Question: Which melting point does the source give for OCCCCC(O)CO (configuration not stated) here?
Answer: 25 to 32 °C

Question: With N#CC1(C#N)C2O[C@H](c3ccccc3)[C@@H](C3=C2CCCC3)C1(C#N)C#N as the compound, how does the melting point read?
Answer: 168 °C

Question: Which melting point does the source give for CN(C)S(=O)(=O)Oc1ccc(C#N)cc1 here?
Answer: 70 to 73 °C

Question: Which melting point does the source give for CC(C)(C)OC(=O)C(C)(C)Sc1ccc(Cl)cc1 here?
Answer: 44 to 46 °C

Question: For CCOC(=O)c1nnc(N)o1, which melting point is on record?
Answer: 199 to 201 °C

Question: With S=C1SCN(Cc2ccccc2)CN1Cc1ccccc1 as the compound, how does the melting point read?
Answer: 102 °C

Question: With N#C/C(=N/Nc1ccccc1)c1nc(-c2ccccc2)cs1 as the compound, how does the melting point read?
Answer: 175 °C

Question: For O=C(O)c1ccc(OC(F)(F)C(F)F)cc1, which melting point is on record?
Answer: 176 to 177 °C

Question: For CC(Cc1oc2c(c3c(c4ccccc42)O[C@@H]2CC(=O)O[C@H]32)c(=O)c1[Si](C)(C)C)O[Si](C)(C)C(C)(C)C (some centres not stated), which melting point is on record?
Answer: 188 to 190 °C

Question: Which melting point does the source give for CCOC(=O)c1nn(-c2ccc(C)cc2)c(C)c1C(=O)c1noc(-c2ccc(Br)cc2)c1S(=O)(=O)c1ccccc1 here?
Answer: 170 °C

Question: For Cc1c(C)c(C)c(C(=O)Cc2ccccc2)c(C)c1C, which melting point is on record?
Answer: 135 °C

Question: With O=C(c1ccccc1)C1SC(=S)N(c2ccccc2)C1=O (configuration not stated) as the compound, how does the melting point read?
Answer: 159 °C

Question: With OCc1ncoc1-c1ccccc1 as the compound, how does the melting point read?
Answer: 95 to 97 °C

Question: Which melting point does the source give for CC(=O)C(C(=O)OC1CC(C)CCC1C(C)C)C(C)C(C(C)=O)/C(=N\NC(N)=O)OC1CC(C)CCC1C(C)C (configuration not stated) here?
Answer: 200 °C

Question: For CCC(N)(CO)CO, which melting point is on record?
Answer: 37.5 °C

Question: For Cn1ccc2ccc(C(=O)O)cc21, which melting point is on record?
Answer: 197 °C

Question: For CCCCC#CCCCCC, which melting point is on record?
Answer: -74.1 °C

Question: Which melting point does the source give for CCOC(=O)c1c(-c2ccccc2)csc1N here?
Answer: 92 °C

Question: For NNC(=O)c1cccc(Cl)c1, which melting point is on record?
Answer: 158 °C

Question: With Fc1ccc2nc(C(F)(F)F)cc(Cl)c2c1 as the compound, how does the melting point read?
Answer: 78 to 82 °C

Question: Which melting point does the source give for COc1cc([C@@H](O)[C@H](CO)Oc2c(OC)cccc2OC)cc(OC)c1OC here?
Answer: 105 °C

Question: For Cc1c(N/N=C(/C(=O)c2ccc([N+](=O)[O-])cc2)S(=O)(=O)c2ccccc2)c(=O)n(-c2ccccc2)n1C, which melting point is on record?
Answer: 135 °C

Question: For COC(=O)[C@@H]1C[C@@H](O)CN1C(=O)OC(C)(C)C, which melting point is on record?
Answer: 91 to 96 °C

Question: For O=C(CBr)c1ccc(C(=O)CBr)cc1, which melting point is on record?
Answer: 173 °C

Question: With CCC(O)C(CC(C)N(C)C)(c1ccccc1)c1ccccc1 (configuration not stated) as the compound, how does the melting point read?
Answer: 127 °C

Question: Which melting point does the source give for CCOC(=O)Cc1csc(=S)[nH]1 here?
Answer: 136 to 144 °C

Question: For O=C1c2ccccc2C(=O)c2c1ccc([N+](=O)[O-])c2[N+](=O)[O-], which melting point is on record?
Answer: 341 °C

Question: Which melting point does the source give for CC(C)(C)OC(=O)C=P(c1ccccc1)(c1ccccc1)c1ccccc1 here?
Answer: 146 to 151 °C

Question: With CCOC(=O)c1sc(N)nc1C as the compound, how does the melting point read?
Answer: 177 to 178 °C

Question: With FC(Cl)CCl (configuration not stated) as the compound, how does the melting point read?
Answer: -60 °C

Question: With Cc1ccc(C(C)(C)C(=O)ON)cc1 as the compound, how does the melting point read?
Answer: 119 °C

Question: With O=C(O)CF as the compound, how does the melting point read?
Answer: 35.2 °C

Question: Which melting point does the source give for C[C@]12CCC(=O)C[C@@H]1CC[C@@H]1[C@@H]2CC[C@]2(C)C(=O)C=C[C@@H]12 here?
Answer: 172 to 173 °C

Question: For CC(C)(C)NC=O, which melting point is on record?
Answer: 16 °C

Question: Which melting point does the source give for NC(=S)c1ccsc1 here?
Answer: 96 to 98 °C

Question: Which melting point does the source give for CC1C/C(=C\c2ccc([N+](=O)[O-])cc2)C(=O)/C(=C/c2ccc([N+](=O)[O-])cc2)C1 (configuration not stated) here?
Answer: 192 to 193 °C

Question: For Brc1nc(Br)n(Cc2ccccc2)n1, which melting point is on record?
Answer: 60 to 65 °C

Question: With CC(NC(=O)CCCCNC(=O)C12CC3CC(CC(C3)C1)C2)[P+]([O-])(Oc1ccccc1)Oc1ccccc1 (configuration not stated) as the compound, how does the melting point read?
Answer: 150 °C

Question: Which melting point does the source give for CC1(C)CC(CN2C(=O)C=CC2=O)C(C)(C)N1O (configuration not stated) here?
Answer: 148 to 150 °C

Question: With COc1cc(OC)c2c(=O)c(=O)c2c1 as the compound, how does the melting point read?
Answer: 149 °C

Question: With Cc1noc(-c2ccc(Br)cc2)n1 as the compound, how does the melting point read?
Answer: 97 to 98 °C

Question: With O=c1oc(-c2c(F)cccc2Cl)cc2ccccc12 as the compound, how does the melting point read?
Answer: 241 °C

Question: For O=COCC=Cc1ccccc1, which melting point is on record?
Answer: 0 °C

Question: For CC1(C)C2CCC(O2)C(Cl)C1O (configuration not stated), which melting point is on record?
Answer: 71 to 72 °C

Question: With Cc1cc(Cl)c(Cl)c(Cl)c1 as the compound, how does the melting point read?
Answer: 45.5 °C

Question: For Cc1nc(-c2ccccn2)nc(Cl)c1Cl, which melting point is on record?
Answer: 127 to 129 °C

Question: Which melting point does the source give for COc1ccc2c(=O)n3ccccc3cc2c1 here?
Answer: 130 °C

Question: Which melting point does the source give for CC(C)(C)c1ccc(-c2noc(CCl)n2)cc1 here?
Answer: 46 to 48 °C

Question: With Nc1cccc2nsnc12 as the compound, how does the melting point read?
Answer: 68 °C

Question: Which melting point does the source give for CC(=O)CCCCC(C)=O here?
Answer: 44 °C

Question: For Cc1cc2nsnc2cc1C, which melting point is on record?
Answer: 89 to 90 °C

Question: Which melting point does the source give for Cc1noc(-c2ccccc2Br)n1 here?
Answer: 43 to 44 °C

Question: Which melting point does the source give for COC(=O)CCC(C)C1CCC2C3C(=O)CC4CCCCC4(C)C3CC(=O)C12C (configuration not stated) here?
Answer: 140 °C

Question: Which melting point does the source give for COC(=O)c1scc(C)c1Cl here?
Answer: 76 to 78 °C

Question: For ClC(Cl)(Br)CBr, which melting point is on record?
Answer: -26 °C
